# From ChEMBL document CHEMBL3507680, “University of Dundee, Gates Library screen for HepG2 cell viability”
# Assay: Human HepG2 cell viability assay in 384 well format
# Assay type: toxicity, cell-based
# Set-up: dose 125 nL, time 70.5 hour; cytotoxicity at 70.5 h: concentration not given beside the values
# Conditions: HepG2 cells, read-out: Inhibition
row,SMILES,cytotoxicity at 70.5 h [%]
1,COCC(Nc1ncnc2c1CCNCC2)c1ccccn1 (stereo not given),-12.5
2,OCC1(O)CCN(c2ccnc3c(C(F)(F)F)cccc23)CC1,-3.41
3,CN(C)c1ncc(-c2c(-c3ccccc3)ncn2C(CO)C(=O)O)cn1 (stereo not given),-10.8
4,COc1ccc2c(c1)OCC(CNC(=O)CCc1c(C)n[nH]c1C)C2 (stereo not given),-1.4
5,CC(=O)N1CC2(CCNCC2)c2cc(C)ccc21,20.4
6,O=C(c1ccn(-c2ccccc2Cl)n1)N1CCSCC1,-14.1
7,Cc1noc(-c2ccc(N3CCN(Cc4nccn4C)CC3)nc2)n1,-15.7
8,Cc1cn2c(n1)CCC(NC(=O)CCC1CC1)C2 (stereo not given),-3.09
9,CNC(=O)C1(c2cnccn2)CCCN1C(=O)c1ccccc1OC (stereo not given),13.3
10,Cn1ccc(CNC(=O)Nc2ccc(S(=O)(=O)C(F)F)cc2)c1,-2.09
11,c1csc(CN2CC[C@H]3O[C@@H](COCC4CC4)CC[C@H]32)c1,27
12,Cc1cn(CC(=O)Nc2cc(C(C)(C)C)nn2C)cn1,-5.53
13,CCc1cc(CNC(=O)NCc2ccc(N3CCCCC3)cc2)on1,-7.79
14,Cc1n[nH]c(C)c1CCN(C)c1ccc(-c2nc(C3CC3)no2)cn1,4.49
15,Cc1ncc(-c2ccnc(NC3CC3)n2)c(-c2cccnc2)n1,14.2
16,Cc1ccc(OCCC(=O)NC(C)c2ccncc2)cc1 (stereo not given),-2.16
17,Cc1noc(C)c1CC(=O)NCC(CC(C)C)N1CCOCC1 (stereo not given),-4.86
18,CC1CCN(C(=O)c2ccn(COc3ccc(F)cc3)n2)CC1,-6.36
19,Cc1ccc(C2CCCN2S(=O)(=O)N(C)Cc2nccn2C)o1 (stereo not given),5.77
20,O=C(CN1CCc2c(ncn2C2CC2)C1)NC1CC1,-23.8
21,COCCN1CCN(Cc2cccc(C(=O)N(C)C)c2)CC1C (stereo not given),14.5
22,CNC(=O)[C@@H]1C[C@H]2CN(c3ncccn3)C[C@H]2N1C(C)C,-1.97
23,O=C(Cn1cccn1)NCC1CCCN(Cc2ccccc2)C1 (stereo not given),-20.2

row,SMILES,cytotoxicity at 70.5 h [%]
1,CC(C)(C)c1ncc(C(=O)NCc2ccccc2CN2CCCC2)s1,-6.15
2,CC(C)Cc1nnc(SCC(=O)O)n1-c1ccc(F)cc1F,5.45
3,CNC(=O)CN1CCOCC2(CN(CCC(F)(F)F)CCO2)C1 (stereo not given),4.91
4,O=C1CC(c2ccsc2)c2cnn(C3CCCC3)c2N1 (stereo not given),-9.93
5,O=S(=O)(c1ccccc1)N1CCC2(CCCN2Cc2cccnc2)C1 (stereo not given),10.9
6,O=C(NCCCn1cccn1)c1csc2c1CCCC2,-11.3
7,Nc1nc(CN2CCN(c3nccs3)CC2)cs1,-5.16
8,Cc1sc(Br)cc1S(=O)(=O)NCCCN,-8.71
9,CCC(O)CN(CC(=O)NC(=O)NC1CC1)c1ccccc1 (stereo not given),-6.3
10,O=C(c1cccnc1O)N1CCC2(CCCO2)CC1,-6.62
11,COc1cc(C2(C(=O)NC3CCC4(CC3)OCCO4)CC2)ccc1C,-4.1
12,CS(=O)(=O)c1cn[nH]c1C1CCCCN1C(=O)Cc1cccnc1 (stereo not given),5.76
13,CCCN1CCc2[nH]cnc2C12CCN(C(=O)Cn1ccnc1C)CC2,-6.5
14,COc1cccc(CC(=O)N2CC[C@H]3[C@@H]2CCC(=O)N3C)c1,4.41
15,CCS(=O)(=O)N1CCc2cc(C(=O)NC)c(NCC(C)C)nc2CC1,-4.65
16,CC1(C(=O)N2CCC(n3cc(C4(O)CCCC4)nn3)CC2)CCCCC1,-9.72
17,NS(=O)(=O)c1ccc(CC(=O)N2CCCC(n3cccn3)C2)cc1 (stereo not given),-7.64
18,CC(=O)NCCNc1nc(C2CCCC2)nc2c1cnn2C,-5.79
19,N#Cc1cccc(C(=O)N2CCn3c(Cn4cncn4)cnc3C2)c1,-5.58
20,Cc1ccccc1-n1cc(-c2ccnc(N[C@H](CO)C(C)C)n2)cn1,-14.1
21,Cc1ccc(NC2CCN(C(=O)C(C)n3cncn3)CC2)nn1 (stereo not given),-0.916
22,Cc1nc(C2CCCN(C(=O)c3cc(Cl)c[nH]3)C2)no1 (stereo not given),-15.5
